This is an account of results in the NIST ThermoML archive (doi:10.1021/je8006088).

The conditions of the data set: Crystal; visual observation.

Numbers after ± are expanded uncertainties.

Turning to `CC(C)=CCC[C@@H](C)[C@H]1CC[C@H]2[C@@H]3CC=C4C[C@@H](O)CC[C@]4(C)[C@H]3CC[C@]12C` [desmosterol], the Normal melting temperature amounted to 120.6 ± 1.1 °C.
